Assay results: patent publication US8415357B2 (Canbas Co., Ltd., priority 2007, dated 2013)

Each molecule was assayed on Jurkat cells (assay: Adaptation to G2 cell cycle arrest (G1 increment) in X-ray pre-arrested Jurkat cells, flow cytometry). Settings: Homo sapiens, Jurkat, 24 h, Table 2; concentration causing half-maximal increase of % cells in G1 phase (G1 increment); Jurkat pre-arrested by 10 Gy X-ray, 24 hours with compound.
Format: cell-based, human
Description: Phenotype-based screening was used to measure the ability of compounds of the invention to cause adaptation to G2 cell cycle arrest in G2-arrested cells. Adaptation to G2 cell cycle arrest and re-entry into the cell cycle can result in death of the previously G2-arrested cell, or suppression (inhibition) of further proliferation of the previously G2-arrested cell. In a non-limiting embodiment, the ability to cause adaptation to G2 cell cycle arrest was measured by contacting cells in which G2 arrest had been induced by irradiation (e.g., gamma (γ) radiation or X-ray radiation), with compounds of the invention at various concentrations and, for each compound at each concentration, determining the percentage of cells that escaped G2 arrest and re-entered the cell cycle, by determining the percentage of cells in G1 phase. The IC50 value for each compound was calculated as the dosage (usually in μM) that caused half-maximal increase of the percentage of cells in G1 phase (the G1 increment) measured for that compound. Certain invention compounds were initially identified by phenotype-based screening of small molecule libraries for activity against G2-arrested cells as described above.
Jurkat cells (a human T cell lymphoma-derived cell line) were arrested at the G2 phase by X-ray irradiation at 10 Gy, and cultured for 24 hours in 10% fetal calf serum (FCS)/RPMI1640 at 37° C. with 5% CO2/air. (FCS was from Equitech-Bio, Kerrville, Tex., and RPMI1640 was from Sigma-Aldrich, St. Louis, Mo.) Test compounds were added to the medium at the indicated doses, and the cells were cultured under the conditions described above, for an additional 24 hours before harvesting.
Harvested cells were stained with Krishan's buffer (0.1% sodium citrate, 50 μg/ml propidium iodide, 20 μg/ml RNase A, 0.5% Nonidet P-40) and analyzed by flow cytometry (BD Biosciences, Franklin Lakes, N.J.) to identify the cell stage of each cell in the sample. Cells in G1 phase were identified by having […] (2N) DNA content.
The IC50 value for each compound was calculated as the dosage showing half maximal activity to induce the increase of the percentage of cells in G1 phase (the G1 increment). IC50 values were used to measure the activity of compounds and to determine structure-activity relationships.
Pre-arrested Jurkat cells were prepared as described in Example 1. Briefly, Jurkat cells were subjected to X-ray irradiation at a dose of 10 Gy, and cultured for 24 hours in 10% fetal calf serum (FCS)/RPMI1640 at 37° C. with 5% CO2/air, after which time cells were exposed to various concentrations of test compounds, and cultured under the conditions described above for an additional 24 hours before harvesting. Harvested cells were stained with Krishan's buffer (0.1% sodium citrate, 50 μg/ml propidium iodide, 20 μg/ml RNase A, 0.5% Nonidet P-40) and analyzed by flow cytometry (BD Biosciences, Franklin Lakes, N.J.) to identify the cell stage of each cell in the sample. Cells in G1 phase were identified by having […] (2N) DNA content.
The IC50 value for each compound was calculated as the dosage (concentration in μM) that caused half-maximal increase of the percentage of cells in G1 phase (the G1 increment) measured for that test compound. Table 1 below presents the structure, mass, 1H NMR values, and […] values for representative compounds.
The IC50 value for each compound was calculated as the dosage (concentration in μM) that caused half-maximal increase of the percentage of cells in G1 phase (the G1 increment) measured for that test compound. Table 2 below presents structures, IUPAC name, molecular formula, ID number (“SCID”), mass, 1H NMR values, and IC50 values for representative compounds. Table 3 presents structures, IUPAC name, molecular formula, ID number (“SCID”), mass, 1H NMR values, and IC50 values for further representative compounds.

Row | SMILES | IC50 [nM]
1 | CC1=C(C)C(=O)N(Nc2cc(CO)c3ccc(Br)cc3n2)C1=O [Compound S01037, 1-{[7-bromo-4-(hydroxymethyl)(2-quinolyl)]amino}-3,4-dimethylazoline-2,5-dione] | 625
2 | CC(=O)OCc1cc(NN2C(=O)C(C)=C(C)C2=O)nc2cc(Br)ccc12 [Compound S01047, {2-[(3,4-dimethyl-2,5-dioxoazolinyl)amino]-7-bromo-4-quinolyl}methylacetate] | 625
3 | COc1ccc(-c2cc(NN3C(=O)C(C)=C(C)C3=O)nc3c(Cl)cccc23)cc1 [Compound S01191, 1-{[8-chloro-4-(4-methoxyphenyl)(2-quinolyl)]amino}-3,4-dimethylazoline-2,5-dione] | 625
4 | CC1=C(C)C(=O)N(Nc2cc(Cl)c3ccc4ccccc4c3n2)C1=O [Compound S01207, 1-[(4-chlorobenzo[h]quinolin-2-yl)amino]-3,4-dimethylazoline-2,5-dione] | 625
5 | CC1=C(C)C(=O)N(Nc2cc(CN3CCN(Cc4ccccc4)CC3)c3ccc(Br)cc3n2)C1=O [Compound S01268, 1-[(7-bromo-4-{[4-benzylpiperazinyl]methyl}(2-quinolyl))amino]-3,4-dimethylazoline-2,5-dione] | 625
6 | CC1=C(C)C(=O)N(Nc2ccc(C(F)(F)F)c(-c3ccc(Cl)cc3)n2)C1=O [Compound S01371, 1-{[6-(4-chlorophenyl)-5-(trifluoromethyl)(2-pyridyl)]amino}-3,4-dimethylazoline-2,5-dione] | 625
7 | CC1=C(C)C(=O)N(Nc2ccc(C(F)(F)F)c(-c3ccc(C)cc3)n2)C1=O [Compound S01393, 3,4-dimethyl-1-{[6-(4-methylphenyl)-5-(trifluoromethyl)(2-pyridyl)]amino}azoline-2,5-dione] | 625
8 | CC1=C(C)C(=O)N(Nc2ccc(C(F)(F)F)c(-c3cccc(Cl)c3)n2)C1=O [Compound S01474, 1-{[6-(3-chlorophenyl)-5-(trifluoromethyl)(2-pyridyl)]amino}-3,4-dimethylazoline-2,5-dione] | 625
9 | CC1=C(C)C(=O)N(Nc2ccc(C(F)(F)F)c(C#N)n2)C1=O [Compound S01475, 6-[(3,4-dimethyl-2,5-dioxoazolinyl)amino]-3-(trifluoromethyl)pyridine-2-carbonitrile] | 500
10 | CCC1=C(C)C(=O)N(Nc2ccc(C(F)(F)F)c(Cl)n2)C1=O [Compound S01553, 1-{[6-chloro-5-(trifluoromethyl)(2-pyridyl)]amino}-3-ethyl-4-methylazoline-2,5-dione] | 450
11 | COCC1=C(C)C(=O)N(N(C)c2ccc(C(F)(F)F)c(Cl)n2)C1=O [Compound S01600, 1-{[6-chloro-5-(trifluoromethyl)(2-pyridyl)]methylamino}-3-(methoxymethyl)-4-methylazoline-2,5-dione] | 625
12 | CC1=C(C)C(=O)N(Nc2cc(CN3CCN(C(=O)OCc4ccccc4)CC3)c3ccc(Br)cc3n2)C1=O [Compound S01683, Phenylmethyl4-({2-[(3,4-dimethyl-2,5-dioxoazolinyl)amino]-7-bromo-4-quinolyl}methyl)piperazinecarboxylate] | 625
13 | CC1=C(C)C(=O)N(Nc2cc(Cl)nc(-c3ccccc3)c2C(F)(F)F)C1=O [Compound S01688, 1-{[6-chloro-2-phenyl-3-(trifluoromethyl)(4-pyridyl)]amino}-3,4-dimethylazoline-2,5-dione] | 625

Second part, the molecule after the results:

Row | IC50 [nM] | SMILES
14 | 200 | CC1=C(C)C(=O)N(Nc2ccc(C(F)(F)F)c(Br)n2)C1=O [Compound S00994, 1-{[6-bromo-5-(trifluoromethyl)(2-pyridyl)]amino}-3,4-dimethylazoline-2,5-dione]
15 | 200 | CC1=C(C)C(=O)N(Nc2cc(Cl)c3cccc(Cl)c3n2)C1=O [Compound S01005, 1-[(4,8-dichloro(2-quinolyl))amino]-3,4-dimethylazoline-2,5-dione]
16 | 120 | CC1=C(C)C(=O)N(N(C)c2ccc(C(F)(F)F)c(Br)n2)C1=O [Compound S01007, 1-{[6-bromo-5-(trifluoromethyl)(2-pyridyl)]methylamino}-3,4-dimethylazoline-2,5-dione]
17 | 78 | CC1=C(C)C(=O)N(Nc2cc(Cl)c3ccc(Cl)c(Cl)c3n2)C1=O [Compound S01078, 3,4-dimethyl-1-[(4,7,8-trichloro(2-quinolyl))amino]azoline-2,5-dione]
18 | 450 | CC1=C(C)C(=O)N(Nc2nc(Cl)cc3ccccc23)C1=O [Compound S01098, 1-[(3-chloroisoquinolyl)amino]-3,4-dimethylazoline-2,5-dione]
19 | 78 | CC1=C(C)C(=O)N(Nc2cc(Cl)c3cccc(Br)c3n2)C1=O [Compound S01247, 1-[(8-bromo-4-chloro(2-quinolyl))amino]-3,4-dimethylazoline-2,5-dione]
20 | 200 | CC1=C(C)C(=O)N(Nc2ccc(C(F)(F)F)c(-c3ccccc3)n2)C1=O [Compound S01266, 3,4-dimethyl-1-{[6-phenyl-5-(trifluoromethyl)(2-pyridyl)]amino}azoline-2,5-dione]
21 | 300 | CC1=C(C)C(=O)N(Nc2cc(Cl)c3ccc(Br)cc3n2)C1=O [Compound S01311, 1-[(7-bromo-4-chloro(2-quinolyl))amino]-3,4-dimethylazoline-2,5-dione]
22 | 300 | CC1=C(C)C(=O)N(Nc2ccc(C(F)(F)F)c(-c3ccc(F)c(Cl)c3)n2)C1=O [Compound S01313, 1-{[6-(3-chloro-4-fluorophenyl)-5-(trifluoromethyl)(2-pyridyl)]amino}-3,4-dimethylazoline-2,5-dione]
23 | 156 | CC1=C(C)C(=O)N(Nc2cc(C(F)(F)F)c3ccc(Cl)c(Cl)c3n2)C1=O [Compound S01455, 1-{[7,8-dichloro-4-(trifluoromethyl)(2-quinolyl)]amino}-3,4-dimethylazoline-2,5-dione]
24 | 300 | CC1=C(C)C(=O)N(Nc2ccc(C(F)(F)F)c(CC(C)C)n2)C1=O [Compound S01457, 3,4-dimethyl-1-{[6-(2-methylpropyl)-5-(trifluoromethyl)(2-pyridyl)]amino}azoline-2,5-dione]
25 | 200 | CC1=C(CO)C(=O)N(Nc2ccc(C(F)(F)F)c(Cl)n2)C1=O [Compound S01470, 1-{[6-chloro-5-(trifluoromethyl)(2-pyridyl)]amino}-3-(hydroxymethyl)-4-methylazoline-2,5-dione]
26 | 200 | CC(=O)N(c1ccc(C(F)(F)F)c(Cl)n1)N1C(=O)C(C)=C(C)C1=O [Compound S01473, N-(3,4-dimethyl-2,5-dioxoazolinyl)-N-[6-chloro-5-(trifluoromethyl) (2-pyridyl)]acetamide]
27 | 120 | CC1=C(CCC(C)C)C(=O)N(Nc2ccc(C(F)(F)F)c(Cl)n2)C1=O [Compound S01554, 1-{[6-chloro-5-(trifluoromethyl)(2-pyridyl)]amino}-4-methyl-3-(3-methylbutyl)azoline-2,5-dione]
28 | 120 | COCC1=C(C)C(=O)N(Nc2ccc(C(F)(F)F)c(Cl)n2)C1=O [Compound S01599, 1-{[6-chloro-5-(trifluoromethyl)(2-pyridyl)]amino}-3-(methoxymethyl)-4-methylazoline-2,5-dione]
29 | 78 | COC(=O)CCC1=C(C)C(=O)N(Nc2ccc(C(F)(F)F)c(Cl)n2)C1=O [Compound S01648, Methyl 3-(1-{[6-chloro-5-(trifluoromethyl)(2-pyridyl)]amino}-4-methyl-2,5-dioxoazolin-3-yl)propanoate]

Same assay, conditions: Table 2; concentration causing half-maximal increase of % cells in G1 phase (G1 increment); Jurkat pre-arrested by 10 Gy X-ray, 24 hours with compound

Row | IC50 [nM] | SMILES
30 | 78 | CC1=C(C)C(=O)N(Nc2cc(CN3CCN(C(=O)OC(C)(C)C)CC3)c3ccc(Br)cc3n2)C1=O [Compound S01589, tert-butyl 4-({2-[(3,4-dimethyl-2,5-dioxoazolinyl)amino]-7-bromo-4-quinolyl}methyl)piperazinecarboxylate]
